Reference: PMC9317902, “Multi-Targeting Approach in Glioblastoma Using Computer-Assisted Drug Discovery Tools to Overcome the Blood–Brain Barrier and Target EGFR/PI3Kp110β Signaling” (Cancers, 2022)

Key:
U87MG cells [1] = experiment: MTT cell viability, U87MG; format: cell-based; conditions: U87MG, 24 h
Procedure: To analyze molecules’ cytotoxicity, U87MG and U87MG-wtEGFR cells were seeded into 96-well plates at a density of 2.5 × 10^4 cells/mL, and after 48 h were incubated with 0.1, 1, 10, or 100 µM of each molecule diluted in (non-supplemented) cell medium for 24 h. The half-maximal effective concentration (EC50) of the most cytotoxic compounds was quantified. Dose–response data were also obtained for treatment with triton X-100 (positive control) and DMSO (vehicle; negative control). The cytotoxicity of selected molecules from initial screening was tested in HBMEC at 100 µM for 24 h. HBMEC were seeded at a density of 8 × 10^4 cell/mL in 96-well plates and after 48 h were incubated with the molecules.
In screening assays, cell viability was evaluated using thiazolyl blue tetrazolium bromide (MTT). Briefly, a culture medium containing 0.5 mg/mL of MTT was added to each well for 90 min at 37 °C. The supernatant was removed and the formed formazan crystals in viable cells were solubilized with 0.04 N HCl in isopropanol solution. The absorbance was recorded using a microplate reader (Zenyth 3100, Anthos Labtec Instruments, Salzburg, Austria) at 595 nm, and values of cell viability were calculated as percentage of negative control.

phospho-AKT = experiment: Immunofluorescence of phospho-AKT in U87MG cells; format: cell-based; conditions: at EC50, 1-9 h
U87MG cells [2] = experiment: Apoptotic cells by nuclear morphology (Hoechst) in U87MG; format: cell-based; conditions: at EC50, 9 h
P-gp = P-gp expression in HBMEC (immunofluorescence); format: cell-based, human; conditions: U87MG EC50, 9 h
Description: HBMEC in coverslips were stained for: the junctional protein β-catenin (1:100, Thermo Fisher Scientific, Waltham, MA, USA, #71-2700), the cytoskeleton protein F-actin (1:1000, Phalloidin dye, Abcam, Cambridge, UK, #ab17675), and the efflux transporter P-gp (1:50, Santa Cruz Biotechnology, Dallas, TX, USA, #sc-390883). HBMEC seeded on polyester inserts for transport assays were also stained for the junctional protein zonula occludens-1 (ZO-1, 1:200, Thermo Fisher Scientific, Waltham, MA, USA, #40-2200) and the cytoskeleton protein vimentin (1:100, Thermo Fisher Scientific, Waltham, MA, USA, #MA3745).
Incubations with primary antibodies occurred overnight at 4 °C. Incubation with the secondary antibodies Alexa Fluor 555 (1:500, Thermo Fisher Scientific, Waltham, MA, USA, #A21428) or Alexa Fluor 488 (1:500, Thermo Fisher Scientific, Waltham, MA, USA, #A11001) lasted for 1 h at room temperature. Nuclei were counterstained with Hoechst 33342 dye (1:1000, Thermo Fisher Scientific, Waltham, MA, USA, #33342) for 10 min. Before mounting with DPX (Merck Millipore, Burlington, MA, USA), cells were dehydrated with methanol. Negative controls were performed.
All acquired images were treated in ImageJ (NIH, Bethesda, MD, USA). Assessment of nuclear morphology following Hoechst staining was evaluated. For fluorescence intensity measures, the regions of interest were selected in Image J, and corresponding integrated densities were obtained. The representative 3D plots for BBB integrity were obtained by merged pixel intensity using the surface plot tool of Image J. For F-actin stress fibers analysis, the plot profile tool of Image J was used considering each defined cell-ferret diameter.

U87MG cells [3] = experiment: BBB-GB co-culture model HBMEC:U87MG; format: cell-based
Procedure: To assess molecule cytotoxicity in GB cells after crossing the HBMEC monolayer, a co-culture BBB-GB model was used. HBMEC were seeded in the Transwell apparatus as described above. After 5 days, U87MG or U87MG-wtEGFR cells were seeded (1.2 × 10^5 cell/mL) in the lower chamber. After 3 days of co-culture, upper chamber content was replaced with fresh medium (control) or medium containing each molecule at respective EC50. After 2 h, inserts were removed and tested for barrier integrity by TEER readings and immunofluorescence analysis, whereas GB cells were maintained in culture for 24 h to further assess cell viability by MTT assay.

U87MG cells [4] = experiment: Abluminal conditioned medium of HBMEC on U87MG; format: cell-based; conditions: 24 h, MTT
Procedure: To evaluate disruptive effects in HBMEC monolayer when co-cultured, a transport assay using HBMEC monoculture was conducted. After 2 h of molecules incubation, the abluminal conditioned media were collected and used to supply U87MG or U87MG-wtEGFR cells for 24 h, which grew to confluence for 3 days. HBMEC were also tested for barrier integrity, and MTT assays were performed at the end of incubation.

CCCCN1CCCc2cc(CN(CCN3CCOCC3)C(=S)Nc3cc(F)cc(F)c3)ccc21 [Mol 19]
EC50 (U87MG cells [1]; Homo sapiens, U-87 MG): 104 ± 14.9 µM
cell death (U87MG cells [1]; screening 0.1-100 µM): ≥ 50%
phosphorylated AKT expression compared with control (phospho-AKT): decreased expression
apoptotic cells (U87MG cells [2]): about 35%
P-gp expression (mean intensity) in HBMEC (P-gp): No significant changes in P-gp expression
TEER of HBMEC (U87MG cells [3]; 2 h at EC50, mono- or co-culture system): TEER readings were not decreased
U87MG cell viability in co-culture system (U87MG cells [3]; added to upper chamber at EC50 for 2 h, MTT after 24 h): impaired
U87MG cell viability with basolateral conditioned medium of HBMEC (U87MG cells [4]): none of the molecules induced a statistically significant difference
